Where a name gives a salt, the structure may show the parent alone.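 Five compound concentrations were applied to cells in 96-well plates for 48 hours; endpoints were derived by simple linear interpolation of the resulting dose-response curve. GI50 marks 50% less growth.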 The source made the active and inactive calls. No stated cut-off is given here; in the data, active = GI50 up to about 1.1 µM and inactive = higher.
Columns and labels:
Experiment in all cases: inhibition of tumour cell growth, NCI panel, 48 h
A549 = system: A549
ACHN = system: ACHN
HL-60 = system: HL-60
HOP-92 = system: HOP-92
HT-29 = system: HT-29
K562 = system: K562
LOX IMVI = system: LOX IMVI
MDA-MB-231 = system: MDA-MB-231
MDA-N = system: MDA-N
NCI-H23 = system: NCI-H23
NCI/ADR-RES = system: NCI/ADR-RES
OVCAR-4 = system: OVCAR-4
OVCAR-8 = system: OVCAR-8
PC-3 = system: PC-3
SK-MEL-28 = system: SK-MEL-28
SNB-19 = system: SNB-19
SR = system: SR
MOLT-4 = system: MOLT-4
OVCAR-5 = system: OVCAR-5
SK-OV-3 = system: SK-OV-3

Measured: GI50

N#Cc1c(=O)c2ccccc2n2ccccc12
inactive: A549 29.8 µM | ACHN > 100 µM | HL-60 > 100 µM | HOP-92 > 100 µM | HT-29 > 100 µM | K562 > 100 µM | LOX IMVI > 100 µM | MDA-MB-231 > 100 µM | MDA-N > 100 µM | NCI-H23 > 100 µM | NCI/ADR-RES > 100 µM | OVCAR-4 > 100 µM | OVCAR-8 > 100 µM | PC-3 19.7 µM | SK-MEL-28 > 100 µM | SNB-19 83.6 µM | SR > 100 µM

CSc1c(C#N)c(=O)[nH]c2[nH]nc(C)c12
inactive: A549 > 100 µM | HL-60 > 100 µM | HT-29 > 100 µM | K562 > 100 µM | LOX IMVI > 100 µM | MDA-MB-231 > 100 µM | MDA-N > 100 µM | MOLT-4 > 100 µM | NCI-H23 > 100 µM | NCI/ADR-RES > 100 µM | OVCAR-4 > 100 µM | OVCAR-5 > 100 µM | OVCAR-8 > 100 µM | PC-3 > 100 µM | SK-MEL-28 > 100 µM | SK-OV-3 > 100 µM | SNB-19 > 100 µM | SR > 100 µM

c1ccc(Nc2nnc(Cn3ccc4ccccc43)s2)cc1
inactive: A549 32.4 µM | ACHN 39.8 µM | HOP-92 54.7 µM | HT-29 57 µM | K562 31.2 µM | LOX IMVI 56 µM | MDA-MB-231 38.3 µM | MDA-N > 100 µM | MOLT-4 23.1 µM | NCI-H23 > 100 µM | NCI/ADR-RES 34.6 µM | OVCAR-4 36.8 µM | OVCAR-5 > 100 µM | OVCAR-8 64.6 µM | PC-3 19.2 µM | SK-MEL-28 80.5 µM | SK-OV-3 > 100 µM | SNB-19 60 µM | SR 12.8 µM

NCCc1cc(O)c(O)cc1O [OXIDOPAMINE HYDROCHLORIDE]
active: SR 0.619 µM
inactive: A549 35 µM | ACHN 20.9 µM | HT-29 32.3 µM | K562 21.5 µM | MDA-MB-231 19.5 µM | MDA-N 22.6 µM | MOLT-4 21.8 µM | NCI/ADR-RES 34.4 µM | OVCAR-5 37.1 µM | OVCAR-8 32.4 µM | PC-3 33.1 µM | SK-MEL-28 > 100 µM | SK-OV-3 > 100 µM | SNB-19 32.5 µM

O=C(OCC1CCCN2CCCCC12)c1ccncc1 (centres undefined)
inactive: A549 > 100 µM | ACHN > 100 µM | HOP-92 > 100 µM | HT-29 > 100 µM | K562 > 100 µM | LOX IMVI > 100 µM | MDA-MB-231 > 100 µM | MDA-N > 100 µM | MOLT-4 > 100 µM | NCI-H23 > 100 µM | NCI/ADR-RES > 100 µM | OVCAR-4 > 100 µM | OVCAR-5 > 100 µM | OVCAR-8 > 100 µM | PC-3 > 100 µM | SK-MEL-28 > 100 µM | SK-OV-3 > 100 µM | SNB-19 > 100 µM | SR > 100 µM

CCOC(=O)c1c(SCCN2CCCC2)n(-c2ccccc2)c(=S)n(-c2ccccc2)c1=O
inactive: A549 4.02 µM | ACHN 1.72 µM | HOP-92 1.6 µM | HT-29 4.89 µM | K562 2.12 µM | LOX IMVI 1.82 µM | MDA-MB-231 2.08 µM | MDA-N 2.36 µM | MOLT-4 1.65 µM | NCI-H23 9.57 µM | NCI/ADR-RES 25.8 µM | OVCAR-4 13.1 µM | OVCAR-5 26.9 µM | OVCAR-8 1.95 µM | PC-3 1.66 µM | SK-MEL-28 2.75 µM | SK-OV-3 18.1 µM | SNB-19 17.4 µM
active: SR 0.457 µM

[N-]=[N+]=NC1CC(n2ccc(N)nc2=O)OC1COP(=O)(O)OP(=O)(O)OP(=O)(O)O (centres undefined)
inactive: A549 > 100 µM | ACHN > 100 µM | HL-60 > 100 µM | HT-29 > 100 µM | K562 > 100 µM | LOX IMVI > 100 µM | MDA-MB-231 > 100 µM | MDA-N > 100 µM | MOLT-4 > 100 µM | NCI/ADR-RES > 100 µM | OVCAR-4 > 100 µM | OVCAR-5 > 100 µM | OVCAR-8 > 100 µM | PC-3 > 100 µM | SK-MEL-28 > 100 µM | SK-OV-3 > 100 µM | SNB-19 > 100 µM | SR > 100 µM

Cc1ccc(/N=C2/SC(c3ccc(C)cc3)(c3ccc(C)cc3)c3ccccc32)cc1
inactive: A549 > 100 µM | ACHN > 100 µM | HL-60 > 100 µM | HOP-92 > 100 µM | HT-29 > 100 µM | K562 > 100 µM | LOX IMVI > 100 µM | MDA-MB-231 > 100 µM | MDA-N > 100 µM | MOLT-4 > 100 µM | NCI-H23 > 100 µM | NCI/ADR-RES > 100 µM | OVCAR-4 > 100 µM | OVCAR-5 > 100 µM | OVCAR-8 > 100 µM | PC-3 > 100 µM | SK-MEL-28 > 100 µM | SK-OV-3 > 100 µM | SNB-19 > 100 µM

Cc1ccc(Cl)c2c(=O)c3ccc(N)cc3sc12
inactive: A549 24.9 µM | ACHN 21.4 µM | HL-60 2.99 µM | HT-29 17.5 µM | K562 18.4 µM | MDA-MB-231 22.2 µM | MDA-N 30.1 µM | MOLT-4 11.7 µM | NCI-H23 23.9 µM | NCI/ADR-RES 15.1 µM | OVCAR-5 28 µM | OVCAR-8 13.2 µM | PC-3 25 µM | SNB-19 27.9 µM

O=S(=O)(c1ccc(/N=N/O)nc1)c1ccc2ccccc2c1
inactive: A549 > 100 µM | ACHN > 100 µM | HL-60 47.8 µM | HT-29 65.8 µM | K562 75 µM | MDA-MB-231 > 100 µM | MDA-N > 100 µM | MOLT-4 > 10 µM | NCI-H23 65.9 µM | NCI/ADR-RES > 100 µM | OVCAR-4 32.6 µM | OVCAR-5 > 100 µM | OVCAR-8 > 100 µM | PC-3 38.5 µM | SK-MEL-28 > 100 µM | SK-OV-3 > 100 µM | SNB-19 > 100 µM | SR > 100 µM

CSc1nc2c(c(N(C)C)n1)C(O)n1c(nc3ccccc31)S2 (centres undefined)
inactive: A549 > 71.9 µM | ACHN > 83.9 µM | HOP-92 43.3 µM | HT-29 > 100 µM | K562 > 100 µM | LOX IMVI 9.38 µM | MDA-MB-231 28 µM | MDA-N > 55.1 µM | MOLT-4 > 100 µM | NCI-H23 31.3 µM | NCI/ADR-RES 37.8 µM | OVCAR-4 4.95 µM | OVCAR-5 > 100 µM | OVCAR-8 14.6 µM | PC-3 > 100 µM | SK-MEL-28 46.2 µM | SK-OV-3 16.5 µM | SNB-19 25.4 µM

CCNc1nc(N)c(C(=O)c2cccs2)s1
inactive: A549 29.8 µM | ACHN 22.3 µM | HL-60 4.1 µM | HOP-92 41.2 µM | HT-29 17.2 µM | K562 25.9 µM | LOX IMVI 18.4 µM | MDA-MB-231 50.4 µM | MDA-N 25.6 µM | MOLT-4 17.6 µM | NCI-H23 20.9 µM | NCI/ADR-RES 35 µM | OVCAR-4 21.1 µM | OVCAR-5 31.3 µM | OVCAR-8 24.7 µM | PC-3 31.5 µM | SK-MEL-28 31 µM | SK-OV-3 36.4 µM | SNB-19 40.7 µM

Cn1c(N)c(/C=N/NC(=O)CC#N)c(=O)n(C)c1=O
inactive: A549 > 100 µM | ACHN > 100 µM | HT-29 > 100 µM | LOX IMVI > 100 µM | MDA-MB-231 > 100 µM | MDA-N > 100 µM | MOLT-4 > 100 µM | NCI/ADR-RES > 100 µM | OVCAR-4 > 100 µM | OVCAR-5 > 100 µM | OVCAR-8 > 100 µM | PC-3 > 100 µM | SK-MEL-28 > 100 µM | SK-OV-3 > 100 µM | SNB-19 > 100 µM | SR > 100 µM

O=C(O)Cn1ccc(=O)c2c([N+](=O)[O-])cccc21
inactive: A549 > 100 µM | ACHN > 100 µM | HL-60 > 100 µM | HT-29 > 100 µM | K562 > 100 µM | MDA-MB-231 > 100 µM | MDA-N > 100 µM | MOLT-4 > 100 µM | NCI-H23 > 100 µM | NCI/ADR-RES > 100 µM | OVCAR-5 > 100 µM | OVCAR-8 > 100 µM | PC-3 > 100 µM | SK-MEL-28 > 100 µM | SK-OV-3 > 100 µM | SNB-19 > 100 µM | SR > 100 µM

O=C(CCl)Nc1cc(Cl)c(Cl)cc1Cl
active: SR 0.644 µM
inactive: A549 2.35 µM | ACHN 2.22 µM | HL-60 2.82 µM | HT-29 2 µM | K562 3.66 µM | LOX IMVI 1.56 µM | MDA-MB-231 1.56 µM | MDA-N 1.69 µM | MOLT-4 > 10 µM | NCI-H23 1.7 µM | NCI/ADR-RES 2.05 µM | OVCAR-4 2.27 µM | OVCAR-5 2.12 µM | OVCAR-8 1.73 µM | PC-3 1.76 µM | SK-MEL-28 2.32 µM | SK-OV-3 > 10 µM | SNB-19 2.27 µM

Cc1cnc2sn(-c3ccc([N+](=O)[O-])cc3)c(=O)c2c1
inactive: A549 64.3 µM | ACHN 29.4 µM | HOP-92 33.3 µM | HT-29 > 100 µM | K562 > 100 µM | LOX IMVI 72.6 µM | MDA-MB-231 82.2 µM | MDA-N > 100 µM | MOLT-4 > 100 µM | NCI-H23 42.9 µM | NCI/ADR-RES > 100 µM | OVCAR-4 94.8 µM | OVCAR-5 > 100 µM | OVCAR-8 43 µM | PC-3 66.2 µM | SK-MEL-28 > 100 µM | SK-OV-3 29 µM | SNB-19 50.4 µM | SR > 100 µM
